Test results published in patent publication US5085739A, “Separation of the propyl alcohols from water by azeotropic or extractive distillation” (priority 1991, dated 1992).
Structures can show the parent of a compound that is named as a salt.

Assays:
[1] = glass perforated plate rectification column (7.3 theoretical plates), isopropanol from water; format: physicochemical; settings: for Relative Volatility: extractive mode, 2 hrs, 7.3 theoretical plates; for Weight % Isopropanol, Bottoms / Weight % Water, Bottoms / Weight % Isopropanol, Overhead / Weight % Water, Overhead: rectification column
Procedure: A solution comprising 175 grams of isopropanol and 25 grams of water was placed in the stillpot of a 7.3 theoretical plate perforated plate column. […] The temperature of the extractive agent as it entered the column was 75° C. After establishing the feed rate of the extractive agent, the heat input to the isopropanol-water in the stillpot was adjusted to give a total reflux rate of 40 ml/min.
After two hours of operation, the overhead and bottoms samples of approximately two ml. were collected and analysed by gas chromatography.

[2] = vapor-liquid equilibrium still, isopropanol-water azeotrope with agent; settings: for Relative Volatility: isopropanol from water, agent in vapor-liquid equilibrium still, water as overhead
From the text: In every case, the starting material was the propanol-water azeotrope. The relative volatilities are listed for each of the agents.

[3] = vapor-liquid equilibrium still, n-propanol-water azeotrope with agent; settings: for Relative Volatility: n-propanol from water; for liquid composition, n-propanol / liquid composition, water / vapor composition, n-propanol / vapor composition, water: butoxypropanol four hours, n-amyl acetate 14 hours
From the text: The data in Table 2, 3, 5, 6 and 7 were obtained in a vapor-liquid equilibrium still. In every case, the starting material was the propanol-water azeotrope. The relative volatilities are listed for each of the agents.

[4] = glass perforated plate rectification column, n-propanol from water; format: physicochemical
Procedure: A solution comprising 288 grams of n-propanol and 112 grams of water was placed in the stillpot of the perforated plate column. When refluxing began, an extractive agent comprising n-butyl acetate was pumped into the column at a rate of 15/min/ml. The temperature of the extractive agent as it entered the column was 85° C. After establishing the feed rate of the extractive agent, the heat input to the n-propanol-water in the stillpot was adjusted to give a total reflux rate of 40 ml/min. After two hours of operation, the overhead and bottoms samples of approximately two ml. were collected and analysed.
Two hundred grams of the n-propanol-water azeotrope and 85 grams of n-amyl formate as the azeotrope former were charged to the 7.3 theoretical plate column and refluxed at total reflux for four hours.

[5] = glass perforated plate rectification column (7.3 theoretical plates), isopropanol from water; format: physicochemical; settings: azeotropic
[6] = extractive distn., water as overhead
[7] = extractive distn., * brings n-propanol out as overhead

CCCCO [1-Butanol]
Relative Volatility [1]: 1.20 | Weight % Isopropanol, Bottoms [1]: 87.9 Weight % | Weight % Water, Bottoms [1]: 12.1 Weight % | Weight % Isopropanol, Overhead [1]: 65.3 Weight % | Weight % Water, Overhead [1]: 34.7 Weight %

CCCC(=O)OCC [Ethyl butyrate]
Relative Volatility [2]: 1.46

N#Cc1ccccc1 [Benzonitrile]
Relative Volatility ([3]; azeotropic distn.): 1.5

CCCCOC(=O)CCC [Butyl butyrate]
Relative Volatility [2]: 1.39

CC(=O)OCC(C)C [Isobutyl acetate]
Weight % Water, Bottoms ([4]; rectification column): 58.8 Weight % | Weight % n-Propanol, Bottoms ([4]; rectification column): 41.2 Weight % | Weight % Water, Overhead ([4]; rectification column, overhead): 26.1 Weight % | Weight % n-Propanol, Overhead ([4]; rectification column, overhead): 73.9 Weight %

CC(C)CCO [3-Methyl-1-butanol]
Relative Volatility [2]: 1.54

CCCOCC(C)O (centres unmarked) [Propoxypropanol]
Relative Volatility ([4]; extractive mode, 2 hrs): 1.21 | Weight % Water, Bottoms ([4]; rectification column): 30 Weight % | Weight % n-Propanol, Bottoms ([4]; rectification column): 70 Weight % | Weight % Water, Overhead ([4]; rectification column, overhead): 63.5 Weight % | Weight % n-Propanol, Overhead ([4]; rectification column, overhead): 36.5 Weight %

OC1CCCCCCCCCCC1 [Cyclododecanol]
Relative Volatility [3, 6]: 1.43

CCOCCOCCOC(C)=O [Diethylene glycol ethyl ether acetate]
Relative Volatility [3, 6]: 1.3

OCCCCCO [1,5-Pentanediol]
Relative Volatility [3, 6]: 1.22 | Relative Volatility [2]: 1.22

OCCCCCCO [1,6-Hexanediol]
Relative Volatility ([4]; extractive mode, 2 hrs): 1.11 | Weight % Water, Bottoms ([4]; rectification column): 23.6 Weight % | Weight % n-Propanol, Bottoms ([4]; rectification column): 76.4 Weight % | Weight % Water, Overhead ([4]; rectification column, overhead): 38.6 Weight % | Weight % n-Propanol, Overhead ([4]; rectification column, overhead): 61.4 Weight % | Relative Volatility [3, 6]: 1.31

CCCCCC(C)=O [2-Heptanone]
Relative Volatility [3, 6]: 1.88 | Relative Volatility [2]: 1.32

COc1ccccc1 [Anisole]
Relative Volatility [3, 6]: 2.0 | Relative Volatility [2]: 1.54

CCCCCCCCCCCO [Undecyl alcohol]
Relative Volatility [3, 6]: 1.39

CCCCCOC(C)=O [n-Amyl acetate]
liquid composition, n-propanol [3]: 67.3% | liquid composition, water [3]: 32.7% | vapor composition, n-propanol [3]: 58% | vapor composition, water [3]: 42% | Relative Volatility ([3]; azeotropic distn.): 1.5 | Relative Volatility [2]: 1.30

CC(=O)CCC(C)C [Methyl isoamyl ketone]
Relative Volatility [2]: 1.32

CCCCCCOC=O [n-Hexyl formate]
Relative Volatility [2]: 1.52

CCCCCC(=O)CC [3-Octanone]
Relative Volatility [2]: 1.22

CCCCCCOC(C)=O [Hexyl acetate]
Relative Volatility ([3]; azeotropic distn.): 3.4 | Relative Volatility [2]: 1.31

CCCCOC(=O)c1ccccc1 [Butyl benzoate]
Relative Volatility [2]: 1.36

CCCC(C)=O [2-Pentanone]
Relative Volatility [2]: 1.38

CCCCCCCCCCO [n-Decanol]
Relative Volatility [2]: 1.38

CCC(C)O (centres unmarked) [2-Butanol]
Relative Volatility [2]: 1.36

CCCOC(=O)CCC [Propyl butyrate]
Relative Volatility ([3]; azeotropic distn.): 3.6 | Relative Volatility [2]: 1.72 | liquid composition, isopropanol ([2]; refluxed six hours): 85.3% | liquid composition, water ([2]; refluxed six hours): 14.7% | vapor composition, isopropanol ([2]; refluxed six hours): 77.1% | vapor composition, water ([2]; refluxed six hours): 22.9%

C=COCCCC [Vinyl n-butyl ether]
Weight % Isopropanol, Bottoms [1]: 80.3 Weight % | Weight % Water, Bottoms [1]: 5.1 Weight % | Weight % Isopropanol, Overhead [1]: 28.5 Weight % | Weight % Water, Overhead [1]: 14.5 Weight % | Weight % Agent, Bottoms ([5]; bottoms): 14.6 Weight % | Weight % Agent, Overhead ([5]; overhead): 57.0 Weight %

CCC(=O)c1ccccc1 [Propiophenone]
Relative Volatility [2]: 1.31

OCCO [Ethylene glycol]
Relative Volatility [3, 7]: 1.7

CCCCOC(C)=O [n-Butyl acetate]
Relative Volatility ([4]; extractive mode, 2 hrs, * n-propanol comes off as overhead): 1.32 | Weight % Water, Bottoms ([4]; rectification column): 73.7 Weight % | Weight % n-Propanol, Bottoms ([4]; rectification column): 26.3 Weight % | Weight % Water, Overhead ([4]; rectification column, overhead): 27.7 Weight % | Weight % n-Propanol, Overhead ([4]; rectification column, overhead): 72.3 Weight % | Relative Volatility [3, 7]: 1.7 | Relative Volatility [2]: 1.28

O=[N+]([O-])c1ccccc1 [Nitrobenzene]
Relative Volatility [3, 6]: 1.21 | Relative Volatility [2]: 1.32

CCCCCCO [Hexyl alcohol]
Relative Volatility [3, 6]: 1.44 | Relative Volatility [2]: 1.32

CC(C)CCCCCCCO [Isodecyl alcohol]
Relative Volatility [3, 6]: 1.30

CCCCCCC(C)O (centres unmarked) [2-Octanol]
Relative Volatility [2]: 1.30

CCCCCOC=O [Amyl Formate]
Relative Volatility ([4]; azeotropic mode, 4 hrs): 1.23 | Weight % Water, Bottoms ([4]; rectification column): 7.3 Weight % | Weight % n-Propanol, Bottoms ([4]; rectification column): 25.7 Weight % | Weight % Agent, Bottoms ([4]; rectification column, azeotropic): 67.0 Weight % | Weight % Agent, Bottoms ([4]; rectification column, azeotropic, listed as n-amyl formate): 67 Weight % | Weight % Water, Overhead ([4]; rectification column, overhead): 40.3 Weight % | Weight % n-Propanol, Overhead ([4]; rectification column, overhead): 29.9 Weight % | Weight % Agent, Overhead ([4]; rectification column, overhead, azeotropic): 29.8 Weight %

CC(=O)CC(C)C [4-Methyl-2-pentanone]
Relative Volatility [1]: 1.45 | Weight % Isopropanol, Bottoms [1]: 82.3 Weight % | Weight % Water, Bottoms [1]: 17.7 Weight % | Weight % Isopropanol, Overhead [1]: 23.2 Weight % | Weight % Water, Overhead [1]: 76.8 Weight % | Relative Volatility ([4]; extractive mode, 2 hrs): 1.45 | Relative Volatility ([3]; azeotropic distn.): 1.3 | Relative Volatility [2]: 1.36

CC(C)COCC(C)O (centres unmarked) [Propylene glycol isobutyl ether]
Relative Volatility [2]: 1.29

Butoxypropanol
Weight % Water, Bottoms ([4]; rectification column): 15.9 Weight % | Weight % n-Propanol, Bottoms ([4]; rectification column): 84.1 Weight % | Weight % Water, Overhead ([4]; rectification column, overhead): 50.1 Weight % | Weight % n-Propanol, Overhead ([4]; rectification column, overhead): 49.9 Weight % | liquid composition, n-propanol [3]: 77.2% | liquid composition, water [3]: 22.8% | vapor composition, n-propanol [3]: 60.5% | vapor composition, water [3]: 39.5%

CCCC(=O)OCC(C)C [Isobutyl butyrate]
Relative Volatility ([3]; azeotropic distn.): 1.2

CC(=O)C(C)C [3-Methyl-2-butanone]
Relative Volatility [2]: 1.24

CCCCC(=O)CC [3-Heptanone]
Relative Volatility ([3]; azeotropic distn.): 4.3

CC(=O)C=C(C)C [Mesityl oxide]
Relative Volatility ([3]; azeotropic distn.): 1.2 | Relative Volatility [2]: 1.47

CC(O)c1ccccc1 (stereo not drawn) [alpha-Methyl benzyl alcohol]
Relative Volatility [3, 6]: 1.48

COC(=O)c1ccccc1 [Methyl benzoate]
Relative Volatility [3, 6]: 1.70 | Relative Volatility [2]: 1.50

OCCOCCO [Diethylene glycol]
Relative Volatility [2]: 1.80

COCCO [Ethylene glycol methyl ether]
Relative Volatility [2]: 1.60

CCOCCOC(C)=O [Ethylene glycol ethyl ether acetate]
Relative Volatility [3, 6]: 1.37

O=C1OCCO1 [Ethylene carbonate]
Relative Volatility [3, 7]: 1.3

CC(C)COC(=O)C(C)C [Isobutyl isobutyrate]
Relative Volatility [2]: 1.61
